According to US8680012B2, “4-phenyl-pyrane-3,5-diones,4-phenyl-thiopyrane-3,6-diones and cyclohexanetriones as novel herbicides” (Syngenta Crop Protection LLC, priority 2006, dated 2014):

Columns and labels:
Type in all cases: in vivo
[1] = test system: Avena fatua (AVEFA); experiment: Example A post-emergence herbicidal activity, glasshouse pot test; details: 360 h, rate 125 g/ha, evaluated 15 days after spraying, read-out: Post-emergence activity AVEFA (100=total damage to plant; 0=no damage to plant)
Method: (§1) Seeds of a variety of test species were sown in standard soil in pots. After cultivation for one day (pre-emergence) or after 10 days cultivation (post-emergence) under controlled conditions in a glasshouse, the plants were sprayed with an aqueous spray solution derived from the formulation of the technical active ingredient in 0.6 ml acetone and 45 ml formulation solution containing 10.6% Emulsogen EL (Registry number 61791-12-6), 42.2% N-methylpyrrolidone, 42.2% dipropylene glycol monomethyl ether (Registry number 34590-94-8) and 0.2% X-77 (Registry number 11097-66-8). The test plants were then grown in a greenhouse under optimum conditions until, 15 days later for post-emergence and 20 days for pre-emergence, the test was evaluated (100=total damage to plant; 0=no damage to plant).
(§2) Alopecurus myosuroides (ALOMY), Avena fatua (AVEFA), Lolium perenne (LOLPE), Setaria faberi (SETFA), Digitaria sanguinalis (DIGSA), Echinochloa crus-galli (ECHCG)

[2] = test system: Digitaria sanguinalis (DIGSA); experiment: as above; details: 360 h, rate 125 g/ha, evaluated 15 days after spraying, read-out: Post-emergence activity DIGSA (100=total damage to plant; 0=no damage to plant)
Method: as §1, §2

[3] = test system: Setaria faberi (SETFA); experiment: as above; details: 360 h, rate 125 g/ha, evaluated 15 days after spraying, read-out: Post-emergence activity SETFA (100=total damage to plant; 0=no damage to plant)
Method: as §1, §2

[4] = test system: Alopecurus myosuroides (ALOMY); experiment: as above; details: 360 h, rate 125 g/ha, evaluated 15 days after spraying, read-out: Post-emergence activity ALOMY (100=total damage to plant; 0=no damage to plant)
Method: as §1, §2

[5] = test system: Lolium perenne (LOLPE); experiment: as above; details: 360 h, rate 125 g/ha, evaluated 15 days after spraying, read-out: Post-emergence activity LOLPE (100=total damage to plant; 0=no damage to plant)
Method: as §1, §2

[6] = test system: Echinochloa crus-galli (ECHCG); experiment: as above; details: 360 h, rate 125 g/ha, evaluated 15 days after spraying, read-out: Post-emergence activity ECHCG (100=total damage to plant; 0=no damage to plant)
Method: as §1, §2

[7] = test system: Avena fatua (AVEFA); experiment: Example A pre-emergence herbicidal activity, glasshouse pot test; details: 480 h, evaluated 20 days after spraying, read-out: Pre-emergence activity AVEFA (100=total damage to plant; 0=no damage to plant); for pest or weed control at 250 g/ha: rate 250 g/ha; for pest or weed control at 500 g/ha: rate 500 g/ha
Method: as §1, §2

[8] = test system: Digitaria sanguinalis (DIGSA); experiment: as above; details: 480 h, evaluated 20 days after spraying, read-out: Pre-emergence activity DIGSA (100=total damage to plant; 0=no damage to plant); for pest or weed control at 250 g/ha: rate 250 g/ha; for pest or weed control at 500 g/ha: rate 500 g/ha
Method: as §1, §2

[9] = test system: Setaria faberi (SETFA); experiment: as above; details: 480 h, evaluated 20 days after spraying, read-out: Pre-emergence activity SETFA (100=total damage to plant; 0=no damage to plant); for pest or weed control at 250 g/ha: rate 250 g/ha; for pest or weed control at 500 g/ha: rate 500 g/ha
Method: as §1, §2

[10] = test system: Alopecurus myosuroides (ALOMY); experiment: as above; details: 480 h, evaluated 20 days after spraying, read-out: Pre-emergence activity ALOMY (100=total damage to plant; 0=no damage to plant); for pest or weed control at 250 g/ha: rate 250 g/ha; for pest or weed control at 500 g/ha: rate 500 g/ha
Method: as §1, §2

[11] = test system: Lolium perenne (LOLPE); experiment: as above; details: 480 h, evaluated 20 days after spraying, read-out: Pre-emergence activity LOLPE (100=total damage to plant; 0=no damage to plant); for pest or weed control at 250 g/ha: rate 250 g/ha; for pest or weed control at 500 g/ha: rate 500 g/ha
Method: as §1, §2

[12] = test system: Echinochloa crus-galli (ECHCG); experiment: as above; details: 480 h, evaluated 20 days after spraying, read-out: Pre-emergence activity ECHCG (100=total damage to plant; 0=no damage to plant); for pest or weed control at 250 g/ha: rate 250 g/ha; for pest or weed control at 500 g/ha: rate 500 g/ha
Method: as §1, §2

| Structure (SMILES) | pest or weed control at 125 g/ha [1] [%] | pest or weed control at 125 g/ha [2] [%] | pest or weed control at 125 g/ha [3] [%] | pest or weed control at 125 g/ha [4] [%] | pest or weed control at 125 g/ha [5] [%] | pest or weed control at 125 g/ha [6] [%] | pest or weed control at 250 g/ha [7] [%] | pest or weed control at 250 g/ha [8] [%] | pest or weed control at 250 g/ha [9] [%] | pest or weed control at 250 g/ha [10] [%] | pest or weed control at 250 g/ha [11] [%] | pest or weed control at 250 g/ha [12] [%] | pest or weed control at 500 g/ha [7] [%] | pest or weed control at 500 g/ha [8] [%] | pest or weed control at 500 g/ha [9] [%] | pest or weed control at 500 g/ha [10] [%] | pest or weed control at 500 g/ha [11] [%] | pest or weed control at 500 g/ha [12] [%] |
| --- | --- | --- | --- | --- | --- | --- | --- | --- | --- | --- | --- | --- | --- | --- | --- | --- | --- | --- |
| CCc1ccc(-c2ccc(Cl)cc2)cc1C1=C(O)C(C)(C)OC(C)(CC)C1=O (single isomer, unassigned) [Compound A-34] | 20 | 90 | 90 | 70 | 80 | 100 | 50 | 100 | 100 | 60 | 100 | 100 |  |  |  |  |  |  |
| CCc1ccc(-c2ccc(Cl)cc2)cc1C1=C(O)COCC1=O [Compound A-2] | 20 | 50 | 80 | 20 | 0 | 80 |  |  |  |  |  |  | 50 | 10 | 70 | 50 | 60 | 100 |
| Cc1ccc(-c2ccc(Cl)cc2)cc1C1=C(O)COCC1=O [Compound A-3] | 0 | 40 | 60 | 0 | 0 | 70 |  |  |  |  |  |  | 20 | 70 | 50 | 30 | 20 | 70 |
| Cc1ccc(-c2ccc(Cl)cc2)cc1C1=C(O)C(C)(C)OC(C)(C)C1=O [Compound A-5] | 70 | 100 | 80 | 70 | 70 | 100 |  |  |  |  |  |  | 50 | 100 | 100 | 60 | 50 | 100 |
| Cc1ccc(-c2ccc(F)cc2)cc1C1=C(O)C(C)(C)OC(C)(C)C1=O [Compound A-9] | 0 | 80 | 80 | 50 | 30 | 80 |  |  |  |  |  |  | 30 | 50 | 60 | 20 | 20 | 50 |
| Cc1ccc(-c2ccc(C(F)(F)F)cc2)cc1C1=C(O)C(C)(C)OC(C)(C)C1=O [Compound A-10] | 20 | 100 | 50 | 30 | 0 | 100 | 50 | 100 | 100 | 40 | 60 | 100 |  |  |  |  |  |  |
| CCc1ccc(-c2ccc(Cl)cc2)cc1C1=C(O)C(C)(CC)OC(C)(CC)C1=O (stereo not drawn) [Compound A-35] | 50 | 80 | 80 | 80 | 70 | 100 | 70 | 80 | 100 | 70 | 80 | 100 |  |  |  |  |  |  |
| CCc1ccc(-c2ccc(Cl)cc2)cc1C1=C(O)C2(CCCC2)OCC1=O [Compound A-36] | 0 | 70 | 60 | 40 | 70 | 70 | 60 | 100 | 90 | 60 | 80 | 100 |  |  |  |  |  |  |
| Cc1ccc(-c2ccc(Cl)cc2)cc1C1=C(O)[C@@]2(C)CC[C@](C)(O2)C1=O [Compound A-40] | 60 | 70 | 70 | 70 | 60 | 100 | 10 | 70 | 70 | 30 | 20 | 70 |  |  |  |  |  |  |
| CCc1ccc(-c2ccc(Cl)c(Cl)c2)cc1C1=C(O)C(C)(C)OC(C)(C)C1=O [Compound A-42] | 90 | 100 | 100 | 80 | 70 | 100 | 30 | 100 | 100 | 100 | 50 | 80 |  |  |  |  |  |  |
| CCc1ccc(-c2ccc(Cl)c(F)c2)cc1C1=C(O)C(C)(C)OC(C)(C)C1=O [Compound A-43] | 90 | 100 | 100 | 80 | 80 | 100 | 90 | 100 | 100 | 80 | 80 | 100 |  |  |  |  |  |  |
| CCc1ccc(-c2ccc(Cl)c(C)c2)cc1C1=C(O)C(C)(C)OC(C)(C)C1=O [Compound A-44] | 60 | 70 | 30 | 40 | 60 | 100 | 20 | 100 | 50 | 60 | 80 | 70 |  |  |  |  |  |  |
